In experiment [1] the test system is nodal metastases. Briefly: FDG-PET in patient 3. The class given is in vivo, human. Conditions: patient 3, 60 min after 256 MBq.
Experiment [2] deals with proliferating cells. Conditions: cited from earlier work.
Experiment [3] concerns quiescent endothelial cells. Conditions: in vitro; cited from earlier work.
In experiment [4] the test system is angiogenesis. Conditions: in vivo; cited from earlier work.

For the compound `O=C[C@H](F)[C@@H](O)[C@H](O)[C@H](O)CO` [FDG, 2-fluoro-2-deoxyglucose], in experiment [1], the FDG-PET finding entry was “two intensely metabolically active nodal metastases”.
For `N[C@@H](CCC(=O)N[C@@H](CSCC(=O)Nc1ccc([As](O)O)cc1)C(=O)NCC(=O)O)C(=O)O` [GSAO, 4-(N—(S-glutathionylacetyl)amino)phenylarsenous acid], the “toxicity to proliferating cells” value in experiment [2] is reported as “toxic”. For the same compound, the “toxicity to quiescent endothelial cells” value in experiment [3] is listed as “nontoxic”. The effect on angiogenesis entry in experiment [4] is listed as “inhibits angiogenesis in vivo”.

The record behind these values is US12296030B2, “Conjugates and their use as imaging agents” (priority 2019, dated 2025).
